Results reported in US10316371B2, “Screening methods for identifying specific Staphylococcus aureus inhibitors” (TRANA DISCOVERY, INC., priority 2011, dated 2019).
In brackets after ≈: the same amount, converted by molar mass. Read-outs that look alike come from different tables or passages of the source.

Assays:
K. pneumoniae UMM = experiment: MIC; format: cell-based; conditions: Klebsiella pneumoniae
[1] = test system: S. aureus specific Arg ASL (anticodon stem loop) RNA oligomer interaction with programmed ribosomes; experiment: Fluorescence polarization assay of Arg ASL / programmed ribosome complex (HTS and dose response); format: binding, S. aureus Arg ASL; E. coli 70S ribosomes; conditions: 6 pt dose response, fluorescence polarization after 4 hours at 25° C., corrected for auto-fluorescence
Excerpt: The assay requires the following materials: • Ribosomes—isolated from E. coli or S. aureus • fMet tRNA (Sigma or Chemical Block, Moscow) • mRNA (including the S-D sequence, the “box” sequence, the codon for methionine, and the codon for arginine that is specific for S. aureus, AGA, optionally with additional base pairs to the left of the S-D sequence and/or to the right of the codon for arginine) • Fluorescently labeled Arg ASL oliogomer • Buffer—HAM20,β • 384 well high binding micro titer plates (Matrix Technologies #4319, sold by Fischer Scientific as cat #50823855), or other appropriate plates for use in high throughput screening • Filtration (Sartorius Stedium 100 Kdalton VC 1042) or centrifugation for complex purification • EDTA—negative control (binding antagonist) • Neomycin—A-site binding enhancer (binding agonist)
A ribosome complex was prepared using the above materials and then purified prior to use in the assay. The prepared complex can be stored in concentrated form at −80° C. The complexes were diluted in buffer and dispensed onto plates. […] Fluorescence polarization was measured at approximately 4 hours after dispensing onto the micro-titer plates.
ASL^Arg was first heated for 2 min at 90° C. in water, after addition of 1/10 V of 10× buffer incubation continued on ice for at least 10 min. Prior to complex formation 70S ribosomes and tRNA were reactivated in buffer for 5 min at 45° C. followed by 10 min at 37° C.; mRNA was heated in buffer at 37° C. for 5 min. • (1000 μl×(2 μM E. coli 70S ribosomes+10 μM mRNA-Arg+4 μM tRNA^fmet)/HAM20,β→30 min @ 37° C.,+1000 μl×(0.2 μM neomycin+[…]))→20 min @ 37° C., overnight on ice • Final complex: (2000 pm P+2000 pm ASL)/2 ml=1 μM P+1 μM ASL HAM20,β:
Preparation of Complexes: The purified complex was diluted in ice cold HAM20,β such that the total fluorescence was approximately 2,000,000 units per 5 μL.
20 μl of the diluted complex was added to all 384 well plates (except for blank wells, which received 20 μL of HAM20 only, without complex) using Multidrop dispenser after which the plates were incubated at 25° C. for 4 hours (target 4.5 hours for middle of batch). Plates were then analyzed for fluorescence polarization in Analyst HT fluorescence plate reader and the following instrument settings:
The parallel and perpendicular fluorescence values of experimental wells were automatically corrected for the corresponding values obtained from the blank wells. The fluorescence polarization was calculated as following: P=(I−Ip)/(I+Ip), wherein Ip—is perpendicular fluorescence and I—is parallel fluorescence.
The percent of effect of experimental compounds was calculated as following: %-Inh=(P0−Pc)/(P0−P100)*100, wherein P0—is average polarization in 0%—inhibition control wells, P100—is average polarization in 100%—inhibition control wells, and Pc—is polarization in compound well.
The 3 sigma HTS hits were cherry picked and retested in 6 pt dose response format, using 3× serial dilution and the top nominal concentration of 100 uM.
The compounds were serially diluted in 10% DMSO and plated into 384 well plates (in a volume of 5 μL) to achieve the nominal final concentration raging from 100 μM to 0.4 μM. The plates received 20 μl of the diluted complex following incubation at 25° C. for 4 hours. Plates were then analyzed for fluorescence polarization as described above (see HTS section).
In parallel, the compounds were tested for auto-fluorescence. To this end, the compounds were plated (using the same dilution protocol) into 384 well plates. The plates received 20 μL of the HAM20 assay buffer only (without complex). The plates were incubated for 4 hrs and then were analyzed for fluorescence polarization as described above.

E. coli 25922 = experiment: MIC; format: cell-based; conditions: Escherichia coli
Mammalian Cell Toxicity [2] = format: cell-based; conditions: mouse, 3T3 cells
Mammalian Cell Toxicity [3] = format: cell-based; conditions: human, MRC5 cells
[4] = test system: SA 158 (Staphylococcus aureus 158); experiment: MIC; format: cell-based
Method: (§1) The strains included Staphylococcus aureus, Methicillin Resistant (ATCC 33591), Methicillin-Resistant Staphylococcus aureus USA300, Staphylococcus aureus 158, Staphylococcus aureus 22, Staphylococcus aureus 2, Staphylococcus aureus (ATCC 29213), and Staphylococcus aureus 182.
(§2) A series of compounds were evaluated for their activity against drug resistant S. aureus, including MSSA and MRSA strains.

[5] = test system: SA 22 (Staphylococcus aureus 22); experiment: MIC; format: cell-based
Method: as §1, §2

[6] = test system: SA 2 (Staphylococcus aureus 2); experiment: MIC; format: cell-based
Method: as §1, §2

[7] = test system: SA 29213 (Staphylococcus aureus (ATCC 29213)); experiment: MIC; format: cell-based
Method: as §1, §2

[8] = test system: SA USA 300 (Methicillin-Resistant Staphylococcus aureus USA300); experiment: MIC; format: cell-based
Method: as §1, §2

[9] = test system: SA 182 (Staphylococcus aureus 182); experiment: MIC; format: cell-based
Method: as §1, §2

[10] = test system: SA 33591 (Staphylococcus aureus, Methicillin Resistant (ATCC 33591)); experiment: MIC; format: cell-based
Method: as §1, §2

K. pneumoniae 700603 = experiment: MIC; format: cell-based; conditions: Klebsiella pneumoniae
S. epidermidis 35984 = experiment: MIC; format: cell-based; conditions: Staphylococcus epidermidis
Method: (§3) The compounds were re-tested against other bacteria, including Staphylococcus epidermidis (ATCC 35984), Staphylococcus epidermidis (MRSE), E. faecium 134529, E. faecium 145494, […], E. faecium 161651, S. pneumoniae 49619, and S. pneumoniae 149389.
as §2

E. faecium 145494 = experiment: MIC; format: cell-based; conditions: Enterococcus faecium
Method: as §3, §2

E. faecium 134529 = experiment: MIC; format: cell-based; conditions: Enterococcus faecium
Method: as §3, §2

S. pneumoniae 149389 = experiment: MIC; format: cell-based; conditions: Streptococcus pneumoniae
Method: as §3, §2

E. faecalis 29212 = experiment: MIC; format: cell-based; conditions: Enterococcus faecalis
Method: as §3, §2

S. epidermidis MRSE 01 = experiment: MIC; format: cell-based; conditions: Staphylococcus epidermidis
Method: as §3, §2

S. pneumoniae 49619 = experiment: MIC; format: cell-based; conditions: Streptococcus pneumoniae
Method: as §3, §2

E. faecalis 161651 = experiment: MIC; format: cell-based; conditions: Enterococcus faecalis
Method: as §3, §2

E. coli ESBL 4 = experiment: MIC; format: cell-based; conditions: Escherichia coli, ESBL4
[11] = K. pneumoniae UMM, read-out: MIC
[12] = ATCC29213, SA 29213, read-out: MIC
[13] = ATCC33591, SA 33591, read-out: MIC
[14] = K. pneumoniae 700603, read-out: MIC
[15] = S. epidermidis 35984, read-out: MIC
[16] = E. faecium 145494, read-out: MIC
[17] = E. faecium 134529, read-out: MIC
[18] = S. pneumoniae 149389, read-out: MIC
[19] = E. faecalis 29212, read-out: MIC
[20] = S. epidermidis MRSE 01, read-out: MIC
[21] = S. pneumoniae 49619, read-out: MIC
[22] = E. faecalis 161651, read-out: MIC

Row | SMILES | MIC (K. pneumoniae UMM; [11]) [µg/mL] | MIC (E. coli 25922; E. coli 25922, read-out: MIC) [µg/mL] | CC50 (Mammalian Cell Toxicity [2]) [µg/mL] | CC50 (Mammalian Cell Toxicity [3]) [µg/mL] | MIC ([4]; SA 158, read-out: MIC) [µg/mL] | MIC ([5]; SA 22, read-out: MIC) [µg/mL] | MIC ([6]; SA 2, read-out: MIC) [µg/mL] | MIC [7, 12] [µg/mL] | MIC ([8]; SA USA 300, read-out: MIC) [µg/mL] | MIC ([9]; SA 182, read-out: MIC) [µg/mL] | MIC [10, 13] [µg/mL] | MIC (K. pneumoniae 700603; [14]) [µg/mL] | MIC (S. epidermidis 35984; [15]) [µg/mL] | MIC (E. faecium 145494; [16]) [µg/mL] | MIC (E. faecium 134529; [17]) [µg/mL] | MIC (S. pneumoniae 149389; [18]) [µg/mL] | MIC (E. faecalis 29212; [19]) [µg/mL] | MIC (S. epidermidis MRSE 01; [20]) [µg/mL] | MIC (S. pneumoniae 49619; [21]) [µg/mL] | MIC (E. faecalis 161651; [22]) [µg/mL] | other results
1 | CCN1C(=O)C2Cc3c([nH]c4ccccc34)CN2C1=S (stereo not drawn) [Compound #740, 2-ethyl-3-thioxo-2,3,5,6,11,11a-hexahydro-1H-imidazo[1′,5′:1,6]pyrido[3,4-b]indol-1-one] | > 128 | > 128 | 20 to 64 (≈ 70.1 to 224 µM) | 62 (≈ 217 µM) | 128 (≈ 449 µM) | 32 (≈ 112 µM) | 32 (≈ 112 µM) | 64 (≈ 224 µM) | 128 (≈ 449 µM) | 128 (≈ 449 µM) | 128 (≈ 449 µM) | > 128 | 128 (≈ 449 µM) | > 128 | 64 (≈ 224 µM) | > 128 | 128 (≈ 449 µM) | 64 (≈ 224 µM) | > 128 | 128 (≈ 449 µM) | IC50 ([1]; read-out: IC50): 44.2 µM; MIC (E. coli ESBL 4; E. coli ESBL 4, read-out: MIC): > 128 µg/mL
2 | CC[n+]1c(C=CC=CN(C(C)=O)c2ccccc2)sc2ccccc21.[I-] [Compound #928, 2-{4-[acetyl(phenyl)amino]-1,3-butadien-1-yl}-3-ethyl-1,3-benzothiazol-3-ium iodide] |  |  | 20 to 64 | 20 to 64 |  |  |  |  |  |  |  |  |  |  |  |  |  |  |  |  | MIC (K. pneumoniae UMM): > 128 µg/mL; IC50 [1]: agonist; MIC (E. coli 25922; 25922): > 128 µg/mL; MIC [4]: 128 µg/mL; MIC [5]: 64 µg/mL; MIC [6]: 128 µg/mL; MIC ([7]; ATCC29213): 64 µg/mL; MIC [8]: 64 µg/mL; MIC [9]: > 128 µg/mL; MIC ([10]; ATCC33591): 128 µg/mL; MIC (K. pneumoniae 700603; 700603): > 128 µg/mL; MIC (S. epidermidis 35984; 35984): 128 µg/mL; MIC (E. faecium 145494; 145494): 128 µg/mL; MIC (E. faecium 134529; 134529): 128 µg/mL; MIC (S. pneumoniae 149389; 149389): > 128 µg/mL; MIC (E. faecalis 29212; 29212): 128 µg/mL; MIC (S. epidermidis MRSE 01; MRSE): 64 µg/mL; MIC (S. pneumoniae 49619; 49619): > 128 µg/mL; MIC (E. faecalis 161651; 161651): 128 µg/mL; MIC (E. coli ESBL 4): > 128 µg/mL
3 | COc1ccc2c(c1)c(=O)oc1c(C)c(OC(C(=O)O)c3ccccc3)ccc12 (stereo not drawn) [Compound #211, [(8-methoxy-4-methyl-6-oxo-6H-benzo[c]chromen-3-yl)oxy](phenyl)acetic acid] | > 128 | > 128 | 28 (≈ 71.7 µM) | 26 (≈ 66.6 µM) | 128 (≈ 328 µM) | 128 (≈ 328 µM) | 128 (≈ 328 µM) | 128 (≈ 328 µM) | 128 (≈ 328 µM) | 128 (≈ 328 µM) | > 128 | > 128 | > 128 | > 128 | > 128 | 128 (≈ 328 µM) | 128 (≈ 328 µM) | > 128 | 32 (≈ 82 µM) | 128 (≈ 328 µM) | IC50 [1]: agonist; MIC (E. coli ESBL 4; E. coli ESBL 4, read-out: MIC): > 128 µg/mL
